The results in this text go back to paper PMC8773338, “Discovery Potent of Thiazolidinedione Derivatives as Antioxidant, α-Amylase Inhibitor, and Antidiabetic Agent” (Biomedicines, 2021).

Series [1] has as its system alloxan-induced diabetic rat model. Briefly: serum lipid profile in alloxan-induced diabetic rats. It is filed as in vivo. To be noted: for serum CH level decrease: compared to the diabetic control group; for LDL value: versus normal value; for CH level: versus normal animals. The method, then:
The blood samples (0.5 mL) were withdrawn from the retro-orbital plexus of each rat and the other steps adapted for measuring the biochemical analysis are shown in (Supplementary Materials).
A serious side effect related to diabetes is Hyperlipidemia. Insulin deficiency promotes the adipocytes to generate a fatty acid, hepatic phospholipids and cholesterol. Thus, we measured the levels of (cholesterol “CH”, triglyceride “TG”, high, low and very-low- and high/low and very low density lipoproteins “HDL, LDL and VLDL”) in serum for alloxan-loaded diabetes. […] The serum CH. Level decreased by 40%, 32%, 40%, 48%, 52%, and 43% for 3–6, 9, and 11, respectively, compared to the diabetic control group (Figure 7).
Figure 7 The level of Ch (cholesterol), TG (triglyceride), HDL (high density lipoprotein), LDL (low density lipoprotein) and VLDL (very low density lipoprotein) in serum of hyperglycemic loaded rats. […] Data analyzed by one way ANOVA followed by LSD test and expressed as mean ± SEM from five observations.
2007) dissolved in normal saline (Bodade et al., 2013). The animals were allowed to drink 5% glucose solution overnight to overcome the drug induced hypoglycemia (Gandhi and Sasikumar, 2012; Pareek etal., 2009). Blood samples were taken 48 h after injection of alloxan to ensure that diabetes has been induced (Vijayan et al., 2013), and fasting plasma glucose level of rats was determined using glucose strips. Rats with plasma glucose concentration N 300 mg/dl (Gadadare et al., 2015) were considered diabetic and included in […]
The blood samples (0.5 ml) were withdrawn from the retro-orbital plexus of each rat under mild anesthesia using a glass capillary tube after fasting for 6 h. Blood samples were centrifuged at 3000 rpm for 15 min. The serum was kept at −80 °C until analyzed. Speciﬁc reagent kits were used to determine levels of serum triglyceride (TG), serum cholesterol (CH), serum low density lipoproteins (LDL), serum high density lipoproteins (HDL) for assessing the lipid proﬁle.
(§1) Data are expressed as mean ± S.E. Data analysis was done using one way analysis of variance (ANOVA) followed by least significant difference (LSD) test for multiple comparisons. Difference was considered significant when p is less than 0.05. SPSS (version 11) program was used to carry out these statistical tests.

For another series, the target named is T1, α-amylase (Homo sapiens, UniProt P04746).
T1 sequence (P04746 16-511): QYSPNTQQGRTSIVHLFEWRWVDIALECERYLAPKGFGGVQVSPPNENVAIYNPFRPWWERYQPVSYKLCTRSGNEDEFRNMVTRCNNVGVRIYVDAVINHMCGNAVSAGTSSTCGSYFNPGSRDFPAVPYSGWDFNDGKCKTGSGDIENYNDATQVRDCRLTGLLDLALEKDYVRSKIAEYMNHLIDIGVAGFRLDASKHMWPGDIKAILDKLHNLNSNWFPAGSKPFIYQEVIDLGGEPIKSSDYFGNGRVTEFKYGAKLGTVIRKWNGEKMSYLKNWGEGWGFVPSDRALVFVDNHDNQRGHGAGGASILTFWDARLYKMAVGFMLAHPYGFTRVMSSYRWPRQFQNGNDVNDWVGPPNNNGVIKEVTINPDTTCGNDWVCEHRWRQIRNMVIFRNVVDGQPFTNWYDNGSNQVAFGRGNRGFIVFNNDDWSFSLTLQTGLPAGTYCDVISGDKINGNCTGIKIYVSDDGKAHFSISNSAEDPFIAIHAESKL
Nature of the series: in vitro inhibition of α-amylase assay. The class given is biochemical. To be noted: six concentrations 5-40 µg/mL, non-linear regression. The source says:
The α-amylase activity of the probe compounds determined using a method.
This study examined the inhibitory potential for the (3–6, 9, and 11) compounds against α-amylase enzyme. We applied six different concentrations (5,10,15,20,30, and 40) µg/mL for this test. These concentrations were plotted via the inhibition percentage to determine the IC50 (the concentration required to inhibit 50% of the enzyme) using the non-linear regression method.
- inhibition in-vitro of α-Amylase assay:
The α-amylase activity of the compounds were determined using a method in which 250 μL of each compound, or Metformin .HCl, dissolved in ethanol to obtain different concentrations (5, 10, 15, 20,30 and 40 μg/mL ), was mixed with 500 μL of α-amylase (2 U/mL ) in phosphate buffer (100 mM, pH 6.8) and incubated at 37 °C for 10 min. Thereafter, 50 μL of 1% starch, dissolved in the same buffer, was added to the mixture and the samples were incubated again at 37 °C. After 30 min, dinitrosalicylic acid (DNS) colour reagent (1 mL) was added. The (DNS) was prepared by adding 437mg of 3,5- dinitro salicylic acid in 20 mL distilled water to12 g of sodium potassium tartrate in 8 mL of 2 M NaOH, then added distilled water until the solution reach to 40 mL ). the samples were boiled for 10 min in water bath. For non-enzymatic reactions, the assays were performed with a blank containing all of the components except the enzyme. Each concentration was analyzed in three independent experiments run in triplicate.
The percent of inhibition Absorbance was then measured at 540 nm. The percent of inhibition of α-amylase was calculated as following by the formula below:
%inhibition= ((absorbance of blank_absorbance of compound)/absorbance of blank) *100. […]

In series [2] the test system is alloxan-induced diabetic rat model. Briefly: blood glucose level in alloxan-induced diabetic rat model. The class given is in vivo. To be noted: for reduction percentage of blood glucose level: 30-day treatment protocol, compared with the normal control. Here is the method: Healthy male albino Wistar rats (150 ± 20 g) have been obtained as mentioned in Supplementary Materials.
The animals were kept fasting overnight (12 h) before induction of diabetes, which was induced in rats as reported and mentioned in Supplementary Materials.
We obtained the blood samples from the tail vein of all rats, the blood-glucose-level “BGLs” were measured and monitored in all treatment groups at days 0 (basal), 2th, 4th, 15th, and 30th as reported.
This study used an alloxan-induced diabetic rat model to test the anti-hyperglycemic action of substances (3–6, 9, 11). […] The BGL was monitored for each tested compound at three different doses (50, 100, and 250 μ/Kg) and for five experimental period durations (0, 2, 4, 15, 30 days). […]
The animals were kept fasting overnight (12 h) before induction of diabetes. […]
as §1

Series [3] has the same test system. To be noted: Wistar (albino), in vivo, 30 days. The source says: This study used an alloxan-induced diabetic rat model to test the anti-hyperglycemic action of substances (3–6, 9, 11). […] The BGL was monitored for each tested compound at three different doses (50, 100, and 250 μ/Kg) and for five experimental period durations (0, 2, 4, 15, 30 days).
At 50 μ/Kg, we observed no mortality during any of the experiment periods for all tested compounds.
Data analyzed by one way ANOVA followed by LSD test and expressed as mean ± SEM from five observations. TEXT PRINTED IN THE PICTURE: 3: Mortilaty: 20% (250 (m/Kg)); Mortilaty: 10% (100 (m/Kg)); Mortilaty: 0% (50 (m/Kg)) | 4: Mortilaty: 20% (250 (m/Kg)); Mortilaty: 10% (100 (m/Kg)); Mortilaty: 0% (50 (m/Kg)) | 5: Mortilaty: 30% (250 (m/Kg)); Mortilaty: 20% (100 (m/Kg)); Mortilaty: 0% (50 (m/Kg)) | 6: Mortilaty: 20% (250 (m/Kg)); Mortilaty: 10% (100 (m/Kg)); Mortilaty: 0% (50 (m/Kg)) | 9: Mortilaty: 20% (250 (m/Kg)); Mortilaty: 10% (100 (m/Kg)); Mortilaty: 0% (50 (m/Kg)) | 11: Mortilaty: 20% (250 (m/Kg)); Mortilaty: 10% (100 (m/Kg)); Mortilaty: 0% (50 (m/Kg)) DOUBTS OF THE COPYIST ABOUT THIS PICTURE: The control groups NO. (labels 0%, 0%, 0%, overlapping) and DC (labels 50%, 50% and a third that reads 50% or 60%, partly hidden) are not compounds and were left out. / 3, 4, 5, 6, 9, 11, Mortilaty at 50 (m/Kg): the 0% labels are partly overlapped by neighbouring bars and labels; 0% is the best reading. / Which label belongs to which dose series was judged from its position over the bars; several labels overlap.

Series [4] in a line: DPPH radical scavenging activity. To be noted: concentrations 0.16-1000 µg/mL. Here is the method: The assay of 2,2-Diphenyl-1-picrylhydrazyl radical (DPPH) was performed according to the method at.
We examined the antioxidant activity of the (3–6, 9, and 11) hybrids using the stable DPPH assay. The antioxidant result was represented as IC50 (the concentration is essential for 50% reduction in the power of H-donation or radical scavenging). […] The increasing scavenging activity may be due to the stabilization of the lone pair in the conjugated system through the presence of the terminal carbonyl and thiazolidinone groups.

Setting [5] is: 100 μ/Kg, in comparison with DC, 4th and 15th time durations.
Setting [6] is: 250 μ/Kg, 15th and 30th treatments.
The mark [7] stands for this setting: 250 μ/Kg, 30th time duration of treatment.

≈ marks a conversion by molar mass, not a printed value.

On to `O=C(CCl)N1C(=O)S/C(=C/c2ccc3c(c2)OCO3)C1=O` [Compound 4], for which the “VLDL level of serum” value in series [1] (all experimental periods, compared to the normal rats) is “below the normal value”. Also, the “serum CH level decrease” value in series [1] (50 μ/Kg) is given as 32%. For the same molecule, the IC50 against α-amylase was 163 µM. The BGL result in series [2] (50 μ/Kg, 4th, 15th and 30th) was “moderate reduction in BGL”; in series [2] (setting [5]), “moderate decreases in BGL”. Besides, the Mortilaty in series [3] is on record as 0%.

Turning to `O=C1NC(=O)/C(=C\c2ccc3c(c2)OCO3)S1` [Compound 3], the LDL value entry in series [1] (2nd and 15th days) was “can regulate the LDL value to the normal value”. In series [1] (2nd to 15th days), the VLDL result is “failed to reach to control value for VLDL”. Besides, in series [1] (30th day), the VLDL level result was “almost reached to the normal VLDL level” and the LDL value entry was “failed to do so”. In addition, the CH level result in series [1] (30th day, 50 μ/Kg) is recorded as “lower CH level than the normal animals”. For the same molecule, the “serum CH level decrease” value in series [1] (50 μ/Kg) came out at 40%. This molecule gave an IC50 against α-amylase of 173 µM. In series [3], this molecule had a Mortilaty of 0%.

`Cc1nnc(NC(=S)SCC(=O)N2C(=O)S/C(=C/c3ccc4c(c3)OCO4)C2=O)s1` [Compound 9, 2-(5-(Benzo[d][1,3]dioxol-5-ylmethylene)-2,4-dioxothiazolidin-3-yl)-2-oxoethyl (5-Methyl-1,3,4-thiadiazol-2-yl) Carbamodithioate]: in series [1] (4th, 15th and 30th days), the VLDL level entry is reported as “regulated the VLDL level to the normal level”. For the same molecule, the CH level entry in series [1] (30th day, 50 μ/Kg) was “lower CH level than the normal animals”. The “serum CH level decrease” value in series [1] (50 μ/Kg) worked out at 52%. The BGL result is recorded as “moderate reduction in BGL” in series [2] (50 μ/Kg, 4th, 15th and 30th); “moderate decreases in BGL” in series [2] (setting [5]).

As to `CC(=O)CN1C(=O)SC(=Cc2ccc3c(c2)OCO3)C1=O` [Compound 5, 5-(benzo[d][1,3]dioxol-5-ylmethylene)-3-(2-oxopropyl) thiazolidine-2,4-dione], the VLDL level result in series [1] (4th, 15th and 30th days) is “regulated the VLDL level to the normal level”. Further, the CH level entry in series [1] (30th day, 50 μ/Kg) is given as “lower CH level than the normal animals”. For the same molecule, the “serum CH level decrease” value in series [1] (50 μ/Kg) turned out to be 40%. This molecule had an IC50 at α-amylase of 59 µM. For the same molecule, the BGL result in series [2] (setting [6]) is on record as “promising decreases in BGL”. In addition, the Mortilaty in series [3] turned out to be 0%.

On to `O=C(O)CN1C(=O)SC(=Cc2ccc3c(c2)OCO3)C1=O` [Compound 6, 2-(5-(benzo[d][1,3]dioxol-5-ylmethylene)-2,4-dioxothiazolidin-3-yl)acetic acid], for which the “IC50 DPPH radical scavenging” value in series [4] was determined as 10.78 µg/mL (≈ 35.1 µM). In series [1] (4th, 15th and 30th days), the VLDL level result is listed as “regulated the VLDL level to the normal level”. The CH level entry in series [1] (30th day, 50 μ/Kg) is on record as “lower CH level than the normal animals”. The TG level result in series [1] (30th day, versus normal level, 50 μ/Kg) was “decreased to the normal level”. Besides, in series [1] (50 μ/Kg), the “serum CH level decrease” value is recorded as 48%. This molecule also had a half-maximal inhibitory concentration (IC50) against α-amylase of 33.4 µM. In addition, the “reduction percentage of blood glucose level” value in series [2] came out at 69.55%. The BGL entry in series [2] (50 μ/Kg, 4th, 15th and 30th) is recorded as “moderate reduction in BGL”; in series [2] (setting [5]), “moderate decreases in BGL”. Besides, the glucose level entry in series [2] (setting [7]) is “significant reduction in glucose level”. For the same molecule, in series [3], the Mortilaty came to 0%.

Consider `O=C1CSC(=O)N1CC(=O)N1C(=O)SC(=Cc2ccc3c(c2)OCO3)C1=O` [Compound 11, 5-(Benzo[d][1,3]dioxol-5-ylmethylene)-3-(2-(2,4-dioxothiazolidin-3-yl)acetyl) Thiazolidine-2,4-dione], for which the “IC50 DPPH radical scavenging” value in series [4] turned out to be 11.16 µg/mL (≈ 27.5 µM). Also, in series [1] (4th and 30th day), the VLDL result is on record as “regulated only the VLDL of infected rats to normal values”. Further, the CH level result in series [1] (30th day, 50 μ/Kg) is reported as “lower CH level than the normal animals”. Besides, in series [1] (50 μ/Kg), the “serum CH level decrease” value worked out at 43%. On α-amylase, half-maximal inhibition (IC50) was put at 49.2 µM. The “reduction percentage of blood glucose level” value in series [2] was 66.95%. Further, the BGL result is “promising reduction in BGL” in series [2] (50 μ/Kg, p < 0.05, all experiment periods compared to DC group) and “promising decreases in BGL” in series [2] (setting [6]). Moreover, the glucose level entry in series [2] (100 μ/Kg, in comparison with DC, 4th, 15th and 30th time durations) is “significant reduction in glucose level”; in series [2] (setting [7]) it was “significant reduction in glucose level”.
